For series [1], the system named is unilaterally 6-OHDA-lesioned rats. Description: 6-OHDA rat model: L-DOPA induced AIMs and drugs screening test. The series is classed as in vivo. The note with it: for L-DOPA induced AIMs: Example II, 30 min before test.
The test system of the next series is LID. The note with it: cited from earlier work.
The nature of series [2]: Pharmacokinetic profiling of the fixed dose combination product. The series is classed as in vivo. The note with it: cynomolgus monkeys, oral; for Time of maximum plasma concentration: one buspirone (IR)/zolmitriptan (CR) 10 mg/1 mg tablet (batch 0614/2012), n=4. The text has this:
Four non-naïve male cynomolgus monkeys (3.5 to 7 kg; Hainan Jingang Laboratory Animal Co. Ltd.) were used to evaluate the pharmacokinetics of the fixed dose combination product of the present invention. Animals were individually housed in stainless-steel mesh cages during in-life in accordance with the National Research Council “Guide for the Care and Use of Laboratory Animals” and fed twice daily with 120 g of Certified Monkey Diet daily (Beijing Vital Keao Feed Co., Ltd. Beijing, P. R. China). At test occasion, animals were fed the day before at 3:30 to 4:00 pm and the remaining food removed after approximately 1 to 1.5 hours of feeding (at 5:00 pm). Food was withheld until 4-hour post-dosage. The study was conducted in compliance with the Animal Welfare Act, the Guide for the Care and Use of Laboratory Animals, and the Office of Laboratory Animal Welfare (OLAW).
Each monkey was dosed one buspirone hydrochloride (IR)/zolmitriptan (CR) 10 mg/1 mg combination product (batch 0614/2012) orally using tablet gun, placing one tablet beyond the root of tongue. Subsequently, the animals' throat was massaged to aid passage of the tablet down the esophagus and 5-10 mL drinking water injected into its mouth using a syringe. After administration of drinking water, the animals' jaw was checked to see if the tablet was swallowed.
Blood samples were draw from a peripheral vessel from restrained, non-sedated animals at the following time points: pre-dose, 15, 30, 60 min, 2, 4, 8, 12 and 24 h post-dose into (K2) EDTA-coated tubes. Plasma was obtained from the blood samples by centrifugation (3,000×g for 10 minutes at 2 to 8° C.) within one hour of collection and stored frozen in a freezer at −70° C. until bio-analysis.
Analytes were extracted from plasma by mixing 200 μL 0.1% formic acid (FA) in 50% acetonitrile (ACN)/methanol (MeOH) containing 100 ng/mL Labetalol as internal standard with 50 μL plasma sample, followed by centrifugation (4000 rpm for 20 min).
Subsequently, 100 μL of supernatant was removed and mixed with 150 μL 0.1% FA in 25% MeOH/Water, vortexed 10 min and centrifuged for 10 min at 4000 rpm. Chromatographic separation from other constituents of the sample was achieved by ultra-performance liquid chromatography (Acquity, Waters), followed by tandem mass spectrometry (MS/MS) detection (API 4000, AB Sciex Instruments), injecting 20 μL sample. The analytes were separated by an ACE 5 phenyl (2.1×100 mm ID) column maintained at 40° C., using a gradient of A: 10 mM ammonium acetate in water and solvent B: 0.1% FA in 95% ACN)/water (table 4).
Buspirone, zolmitriptan and labetalol were detected at parent/daughter molecular mass of 386.10/122.20, 288.10/58.20 and 329.20/161.90 m/z, and a collision energy of 41, 25 and 50 eV, respectively. Retention times were 2.3, 1.3 and 2.0 min for buspirone, zolmitriptan and labetalol, respectively. Peak areas correlated linearly (r^2>0.997, 1/x^2 weighting) with buspirone and zolmitriptan concentrations in the range 0.5-1000 ng/mL. Lower limit of quantification (LLOQ) was 0.5 ng/mL for buspirone and zolmitriptan based on a signal-to-noise ratio>10:1.
The PK analysis was performed with non-linear mixed effects modelling using Phoenix NMLE 1.2 (Pharsight Corporation). A one- or two-compartment model with first-order absorption and elimination rate was fitted to the time-concentration profiles. Furthermore, model development included modelling of the data with an absorption lag-time (Tlag). To adequately characterise a potential lag-time, the plasma concentrations<LLOQ (Lower Limit of Quantification) was fixed to ½ of LLOQ (0.25 ng/mL) for the sample just prior to the first quantifiable concentration. Best model fit was evaluated based on basic goodness-of-fit plots, parameter precision, visual predictive check and objective function value. A drop in objective function value of […] for nested models with one added parameter was considered a significant improvement in model fit.

The test system of a further series is Parkinson's disease. The note with it: cited from earlier work.
Series [3] deals with unilaterally 6-OHDA-lesioned rats. The note with it: zolmitriptan administered alone; WO2012/048710; cited from earlier work.
Setting [4] is: Example VI, buspirone 0.25 or 0.5 mg/kg s.c., tandospirone 1 or 2 mg/kg i.p., 25 min before test.
The mark [5] stands for this setting: batch 0614/2012, non-linear mixed effects modelling.
The mark [6] stands for this setting: batch 0614/2012, non-linear mixed effects modelling, value (% CV).

`O=C1[C@@H]2[C@@H]3CC[C@@H](C3)[C@@H]2C(=O)N1CCCCN1CCN(c2ncccn2)CC1` [tandospirone, (1R,2R,6S,7S)-4-{4-[4-(pyrimidin-2yl)piperazin-1-yl]butyl}-4-azatricyclo[5.2.1.02,6]decane-3,5-dione]: the “L-DOPA induced AIMs” value was “partially and briefly reduce AIMs” in series [1] (tandospirone 1 mg/kg i.p. alone); “partially and briefly reduce AIMs” in series [1] (tandospirone 2 mg/kg i.p. alone). In addition, the “L-DOPA-induced dyskinesia (AIMs)” value in series [1] (setting [4]) is listed as “significantly reduced L-DOPA-induced dyskinesia”.
Turning to `Fc1ccc(-c2cncc(CNC[C@H]3CCc4ccccc4O3)c2)cc1` [sarizotan, 1-[(2R)-3,4-dihydro-2H-chromen-2-yl]-N-([5-(4-fluorophenyl)pyridin-3-yl]methyl)methanamine], the “Effect on LID” value with LID (phase 2A study and open labeled study) was “reduced LID”. In addition, the “Effect compared to placebo” value with LID (several large phase 2b studies) was “no significant effects”.
Regarding `O=C1CC2(CCCC2)CC(=O)N1CCCCN1CCN(c2ncccn2)CC1` [buspirone, 8-[4-(4-pyrimidin-2-ylpiperazin-1-yl)butyl]-8-azaspiro[4.5]decane-7,9-dione], in series [2] (setting [5]), the “CL/F IIV (inter-individual variability)” value amounted to 37% and the “ka IIV (inter-individual variability)” value is on record as 5.4%. In addition, in series [2] (setting [6]), the “tvQ/F (inter-compartmental clearance)” value is 18 (11) L/h/kg, the “tvTlag (absorption lag-time)” value was “no observable lag-time”, the “tvV2/F (volume of peripheral compartment)” value was 1259 (29) L/kg and the “tvV/F (volume of central compartment)” value is listed as 3.9 (26) L/kg. In series [2] (setting [6]), the “tvka (absorption rate)” value is on record as 1.0 (13) h^-1 and the “tyCL/F (clearance)” value is reported as 13 (124) L/h/kg. The “Time of maximum plasma concentration” value in series [2] is reported as “around 0.5 h”. Besides, the “L-DOPA-induced dyskinesia (AIMs)” value in series [1] (Example I, buspirone 0.5 mg/kg i.p. given alone) was “only partly reduced AIM”. Also, the “L-DOPA-induced dyskinesia (AIMs)” value in series [1] (setting [4]) is recorded as “significantly reduced L-DOPA-induced dyskinesia”. Moreover, the “Effect on Parkinson's disease or dyskinesia” value in the series on Parkinson's disease (doses 10-60 mg/day) is recorded as “did not have any effects on Parkinson's disease or dyskinesia”. For the same molecule, in the series with Parkinson's disease (higher doses (100 mg/day)), the Disability ratings entry is “significant worsening of disability ratings” and the Effect on dyskinesia entry is recorded as “reduced dyskinesia”.
For `CN(C)CCc1c[nH]c2ccc(C[C@H]3COC(=O)N3)cc12` [zolmitriptan, (S)-4-({3-[2-(dimethylamino)ethyl]-1H-indol-5-yl}methyl)-1,3-oxazolidin-2-one], the “Time plasma concentration is sustained above limit of quantification” value in series [2] (batch 0614/2012, LLOQ 0.5 ng/mL) is 12 h. Moreover, the “Absorption rate, slower compared to buspirone” value in series [2] (batch 0614/2012, model) stood at 3 fold. Besides, the “V/F IIV (inter-individual variability)” value in series [2] (setting [5]) was 0.1%. Also, in series [2] (setting [6]), the “tvTlag (absorption lag-time)” value is reported as 0.44 h, the “tvV/F (volume of central compartment)” value is listed as 16 (62) L/kg, the “tvka (absorption rate)” value is listed as 0.32 (55) h^-1 and the “tyCL/F (clearance)” value is listed as 7.0 (11) L/h/kg. In series [2] (batch 0614/2012, non-linear mixed effects modelling, value (% CV), listed as Zolmitriptan), the “tvTlag (absorption lag-time)” value is recorded as 0.44 (3.8) h. Moreover, the “Time of maximum plasma concentration” value in series [2] amounted to 4 h. Besides, the “Inhibition of LID in an animal model for LID” value in series [3] is given as “generally fails to inhibit LID”.

These data come from US10561618B2, “Orally available pharmaceutical formulation suitable for improved management of movement disorders” (Contera Pharma ApS, priority 2012, dated 2020).
